The record followed here is a melting point compilation (Tetko et al.).

Turning to `CC(C)C(=O)NC1(C#N)CCCC1`, the melting point (commonly the temperature, or range, at which the solid turns liquid) fell in the range of 56 to 58 °C.

As for `COC(=O)c1occc1CBr`, the melting point was 50 to 52 °C.

Take `Cc1ccc(C(=O)O)cc1S(=O)(=O)Nc1cc(Cl)ccc1F`: the melting point was in the range of 181 to 183 °C.

`CC(C)c1cc(N)n(C(C)C)n1` gave a melting point of 52 to 54 °C.

In turn, `O=Cc1cnc(-c2ccsc2)s1` gave a melting point of 107 to 109 °C.

As to `COc1ccnc(N)c1`, the melting point lay within 99 to 101 °C.

The molecule `CC1(C)C(=O)Nc2ccc(C(=O)CCl)cc21` came in with a melting point of 233 to 235 °C.

Take `CC(NC(=O)c1cccs1)C(=O)O` (centres undefined): the melting point was in the range of 163 to 165 °C.

For `CC(O)c1nc2cc(Cl)ccc2n1C` (centres undefined), the melting point was in the range of 136 to 138 °C.

Molecule `O=Cc1cccc(OCCC(=O)O)c1` registered a melting point of 98 to 100 °C.

`NC(=O)c1cccc(C=O)c1`: the melting point lay in the range of 108 to 110 °C.

In turn, `NC(CC1CCOC1)C(=O)O` (centres undefined) displayed a melting point of 269 to 271 °C.

With `CC1CC1c1cc(N)on1` (centres undefined), the melting point was 55 to 57 °C.

`COc1cc(C)ccc1OCC(=O)O` returned a melting point of 118 to 120 °C.

In turn, `CC(=O)Nc1cc(C(=O)O)ccc1C` registered a melting point of 277 to 279 °C.

Regarding `O=C(O)Cc1cc(=O)n(C2CCS(=O)(=O)C2)[nH]1` (centres undefined), the melting point was in the range of 168 to 170 °C.

Molecule `O=C(CCl)Nc1ccc(N2CCc3ccccc32)cc1` had a melting point of 167 to 169 °C.

In the case of `CC1(c2ccc(Br)cc2)CC(=O)OC1=O` (centres undefined), the melting point lay within 69 to 71 °C.

`Cc1cc(N)n(-c2ccc(C(F)(F)F)cn2)n1` registered a melting point of 119 to 121 °C.

As for `Cc1ccc(NC(=O)C2CCCNC2)nc1` (centres undefined), the melting point lay in the range of 144 to 146 °C.

For `CC1CN(c2ccc(N)cc2F)CC(C)O1` (centres undefined), the melting point is 116 to 118 °C.

In turn, `Cc1ccc(-c2nnc(O)c3ccccc23)cc1` came in with a melting point of 250 to 255 °C.

In the case of `CN1CCNc2cccnc21`, the melting point was 89 to 91 °C.

The molecule `Clc1cc(Cl)cc(-c2noc(Cl)n2)c1` showed a melting point of 67 to 69 °C.

For `CC(=O)c1c[nH]c2cc(F)ccc12`, the melting point fell in the range of 222 to 224 °C.

For the molecule `O=C(O)/C=C/c1cc(Cl)c2c(c1)OCCO2`, the melting point is 261 to 263 °C.

For the molecule `O=C(O)CCn1cccn1`, the melting point is 76 to 78 °C.

For the molecule `CCOC(=O)c1sc2nc(C(C)Cl)[nH]c(=O)c2c1C` (centres undefined), the melting point fell in the range of 167 to 169 °C.

`O=C(O)CSc1nnc(-c2ccc(Cl)cc2Cl)[nH]1`: the melting point lay within 161 to 163 °C.

Regarding `CCOC(=O)C(=O)c1cc(F)ccc1OC`, the melting point was in the range of 49 to 51 °C.

`O=C(O)CCOc1ccc(F)cc1F` displayed a melting point of 76 to 78 °C.

Take `CC(C)C(C(=O)O)N1CCCS1(=O)=O` (centres undefined): the melting point was 97 to 99 °C.

As for `O=C(O)c1cccc2cccc(-c3cccc4cccc(C(=O)O)c34)c12`, the melting point was 284 to 286 °C.

As to `Nc1cccc2c1CN(CCO)C2`, the melting point lay within 109 to 111 °C.

Consider `Cc1cccc(NC(=O)CCCCl)c1`, for which the melting point lay in the range of 137 to 139 °C.

`O=C(O)CCN1C(=O)NC2(CCCCC2)C1=O` returned a melting point of 100 to 102 °C.

`CC1CCC(NC(=O)C(C)Cl)CC1` (centres undefined): the melting point was in the range of 135 to 137 °C.

Regarding `COc1cc(OC)c(NC(=O)OCC(F)(F)F)cc1Cl`, the melting point was 87 to 89 °C.

`CCOc1ccc(S(=O)(=O)NCCC(=O)O)cc1` yielded a melting point of 178 to 180 °C.

With `CCOc1cccc(C=O)n1`, the melting point lay within 55 to 57 °C.

`CC(Oc1cc(Cl)cc(Cl)c1)C(=O)O` (centres undefined) gave a melting point of 142 to 144 °C.

Regarding `NCc1ccnc(N2CCCC2)n1`, the melting point is 63 to 65 °C.

With `Nc1nc(-c2ccc3c(c2)OCCO3)n[nH]1`, the melting point was in the range of 178 to 180 °C.

With `CCNC(=O)c1cccc(C#N)c1`, the melting point lay in the range of 99 to 101 °C.

Molecule `CC(C)(C)c1ccc(-c2nnc(N)[nH]2)cc1` registered a melting point of 213 to 215 °C.

On to `O=C(O)c1ccc(SC2CC2)cc1`, for which the melting point lay within 156 to 158 °C.

Take `Sc1nnnn1-c1ccc2c(c1)OCO2`: the melting point was in the range of 157 to 159 °C.

Take `N#Cc1c(CCCN)n[nH]c1N`: the melting point lay within 169 to 171 °C.

In turn, `CC(Cl)C(=O)c1ccc(NS(C)(=O)=O)cc1` (centres undefined) registered a melting point of 189 to 192 °C.
